Source: patent US20240360134A1, “PYRAZOLOPYRIMIDINES AND THEIR USES AS PDGFR INHIBITORS” (priority 2021, published 2024)

Assays:
[1] = biological target: Tb-labeled inactive PDGFRβ (Homo sapiens (Human), UniProt P09619); assay: biochemical; type: binding; settings: read-out: PDGFR Lantha IC50
[2] = biological target: His6-TEV-PDGFRβ (557-1016) (Homo sapiens (Human), UniProt P09619); assay: PDGFRβ HTRF Assay; type: biochemical; settings: 800 μM ATP, 0.5 μM TK-substrate biotin peptide, 30 min pre-incubation, 3 hours reaction; read-out: PDGFR HTRF IC50
[3] = biological target: VEGFR2, unphosphorylated (Homo sapiens (Human), UniProt P35968); assay: VEGFR ADP GLO assay; type: biochemical; settings: 5 nM VEGFR2, 1.2 mM ATP, 1 mg/mL Srctide, 180 min
Summary of the method: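 Unphosphorylated kinase (10 nM 2× solution) pre-incubated 30 min at RT with compounds (11-point, 3-fold, top 10 µM), then reacted 180 min with srctide and ATP (2×: 2 mg/mL, 2.4 mM) in HEPES pH 7.5 buffer. ADP read by luminescence. IC50 from 4-parameter fit, normalized to DMSO and 1 µM TAK-593.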

[4] = biological target: PDGFRβ (Rattus norvegicus (Rat), UniProt Q05030); assay: PDGFRβ Cellular Assay (PDGFRb P-Y751 HTRF, PDGF-BB stimulated A10 cells); type: cell-based; settings: A10 cells, 3 hours compound, 15 ng/mL PDGFbb for 10 minutes; read-out: PDGFR Cellular IC50
Summary of the method: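 Rat A10 cells plated overnight were treated with compound for 3 h, stimulated with rat PDGF-BB (working stock 100 ng/mL in 10% FBS medium) for 10 min, then lysed.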

Chain of PDGFRβ (Q05030 whole entry, looked up): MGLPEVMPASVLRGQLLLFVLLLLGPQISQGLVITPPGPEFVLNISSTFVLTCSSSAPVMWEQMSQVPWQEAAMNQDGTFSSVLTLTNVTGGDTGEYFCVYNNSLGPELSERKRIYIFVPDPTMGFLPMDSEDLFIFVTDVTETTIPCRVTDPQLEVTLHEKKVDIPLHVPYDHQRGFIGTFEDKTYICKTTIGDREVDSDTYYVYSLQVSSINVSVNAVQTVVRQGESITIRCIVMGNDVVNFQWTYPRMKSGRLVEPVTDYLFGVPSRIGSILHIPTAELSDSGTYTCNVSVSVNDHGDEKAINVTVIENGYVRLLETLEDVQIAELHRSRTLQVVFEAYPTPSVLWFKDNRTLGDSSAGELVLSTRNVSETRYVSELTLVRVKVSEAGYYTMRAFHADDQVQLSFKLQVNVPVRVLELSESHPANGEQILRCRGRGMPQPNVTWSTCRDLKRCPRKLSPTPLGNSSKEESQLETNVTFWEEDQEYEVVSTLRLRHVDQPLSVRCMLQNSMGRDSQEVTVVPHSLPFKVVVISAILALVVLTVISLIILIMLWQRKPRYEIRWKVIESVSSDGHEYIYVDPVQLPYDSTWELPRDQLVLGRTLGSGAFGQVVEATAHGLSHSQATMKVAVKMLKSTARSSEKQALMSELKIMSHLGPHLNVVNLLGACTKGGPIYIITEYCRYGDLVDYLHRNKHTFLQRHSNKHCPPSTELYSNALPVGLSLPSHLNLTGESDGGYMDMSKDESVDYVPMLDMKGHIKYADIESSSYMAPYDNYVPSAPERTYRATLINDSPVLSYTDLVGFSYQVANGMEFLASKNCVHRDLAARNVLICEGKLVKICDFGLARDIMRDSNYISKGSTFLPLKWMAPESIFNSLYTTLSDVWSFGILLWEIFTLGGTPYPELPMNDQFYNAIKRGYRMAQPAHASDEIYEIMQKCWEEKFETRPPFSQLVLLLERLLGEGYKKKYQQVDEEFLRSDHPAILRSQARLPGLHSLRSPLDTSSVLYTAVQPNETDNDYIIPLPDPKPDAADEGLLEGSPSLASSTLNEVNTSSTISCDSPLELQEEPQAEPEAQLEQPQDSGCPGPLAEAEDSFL
Chain of His6-TEV-PDGFRβ (557-1016) (P09619 whole entry, looked up): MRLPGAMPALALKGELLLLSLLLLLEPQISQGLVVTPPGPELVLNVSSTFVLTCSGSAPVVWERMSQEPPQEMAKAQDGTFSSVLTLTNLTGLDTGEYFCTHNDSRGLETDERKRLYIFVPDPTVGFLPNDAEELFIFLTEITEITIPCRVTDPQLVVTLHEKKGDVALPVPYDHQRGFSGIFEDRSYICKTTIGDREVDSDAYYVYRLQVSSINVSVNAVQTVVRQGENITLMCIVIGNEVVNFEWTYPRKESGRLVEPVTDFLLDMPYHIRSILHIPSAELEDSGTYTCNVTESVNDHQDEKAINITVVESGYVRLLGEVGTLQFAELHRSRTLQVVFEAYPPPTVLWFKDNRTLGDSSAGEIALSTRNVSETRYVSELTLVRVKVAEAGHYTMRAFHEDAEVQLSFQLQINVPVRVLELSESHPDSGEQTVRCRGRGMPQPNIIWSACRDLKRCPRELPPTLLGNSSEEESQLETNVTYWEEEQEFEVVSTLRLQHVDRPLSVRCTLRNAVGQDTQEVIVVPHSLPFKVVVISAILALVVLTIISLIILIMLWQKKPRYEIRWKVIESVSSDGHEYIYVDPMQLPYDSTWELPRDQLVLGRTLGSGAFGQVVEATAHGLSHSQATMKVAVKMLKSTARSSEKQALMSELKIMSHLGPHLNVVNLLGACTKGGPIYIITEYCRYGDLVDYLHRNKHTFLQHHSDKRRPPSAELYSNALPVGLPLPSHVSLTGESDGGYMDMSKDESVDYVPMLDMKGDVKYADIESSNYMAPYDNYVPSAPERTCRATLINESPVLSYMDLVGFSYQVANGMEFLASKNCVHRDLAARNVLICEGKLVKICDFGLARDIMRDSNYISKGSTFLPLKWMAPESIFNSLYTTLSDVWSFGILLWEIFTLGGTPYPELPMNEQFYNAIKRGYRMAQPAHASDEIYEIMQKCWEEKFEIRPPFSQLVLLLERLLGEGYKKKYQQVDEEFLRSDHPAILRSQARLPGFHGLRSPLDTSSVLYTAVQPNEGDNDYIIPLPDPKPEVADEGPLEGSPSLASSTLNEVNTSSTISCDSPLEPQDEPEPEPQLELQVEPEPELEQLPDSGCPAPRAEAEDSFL
Chain of Tb-labeled inactive PDGFRβ (P09619 whole entry, looked up): as above
Chain of VEGFR2, unphosphorylated (P35968 whole entry, looked up): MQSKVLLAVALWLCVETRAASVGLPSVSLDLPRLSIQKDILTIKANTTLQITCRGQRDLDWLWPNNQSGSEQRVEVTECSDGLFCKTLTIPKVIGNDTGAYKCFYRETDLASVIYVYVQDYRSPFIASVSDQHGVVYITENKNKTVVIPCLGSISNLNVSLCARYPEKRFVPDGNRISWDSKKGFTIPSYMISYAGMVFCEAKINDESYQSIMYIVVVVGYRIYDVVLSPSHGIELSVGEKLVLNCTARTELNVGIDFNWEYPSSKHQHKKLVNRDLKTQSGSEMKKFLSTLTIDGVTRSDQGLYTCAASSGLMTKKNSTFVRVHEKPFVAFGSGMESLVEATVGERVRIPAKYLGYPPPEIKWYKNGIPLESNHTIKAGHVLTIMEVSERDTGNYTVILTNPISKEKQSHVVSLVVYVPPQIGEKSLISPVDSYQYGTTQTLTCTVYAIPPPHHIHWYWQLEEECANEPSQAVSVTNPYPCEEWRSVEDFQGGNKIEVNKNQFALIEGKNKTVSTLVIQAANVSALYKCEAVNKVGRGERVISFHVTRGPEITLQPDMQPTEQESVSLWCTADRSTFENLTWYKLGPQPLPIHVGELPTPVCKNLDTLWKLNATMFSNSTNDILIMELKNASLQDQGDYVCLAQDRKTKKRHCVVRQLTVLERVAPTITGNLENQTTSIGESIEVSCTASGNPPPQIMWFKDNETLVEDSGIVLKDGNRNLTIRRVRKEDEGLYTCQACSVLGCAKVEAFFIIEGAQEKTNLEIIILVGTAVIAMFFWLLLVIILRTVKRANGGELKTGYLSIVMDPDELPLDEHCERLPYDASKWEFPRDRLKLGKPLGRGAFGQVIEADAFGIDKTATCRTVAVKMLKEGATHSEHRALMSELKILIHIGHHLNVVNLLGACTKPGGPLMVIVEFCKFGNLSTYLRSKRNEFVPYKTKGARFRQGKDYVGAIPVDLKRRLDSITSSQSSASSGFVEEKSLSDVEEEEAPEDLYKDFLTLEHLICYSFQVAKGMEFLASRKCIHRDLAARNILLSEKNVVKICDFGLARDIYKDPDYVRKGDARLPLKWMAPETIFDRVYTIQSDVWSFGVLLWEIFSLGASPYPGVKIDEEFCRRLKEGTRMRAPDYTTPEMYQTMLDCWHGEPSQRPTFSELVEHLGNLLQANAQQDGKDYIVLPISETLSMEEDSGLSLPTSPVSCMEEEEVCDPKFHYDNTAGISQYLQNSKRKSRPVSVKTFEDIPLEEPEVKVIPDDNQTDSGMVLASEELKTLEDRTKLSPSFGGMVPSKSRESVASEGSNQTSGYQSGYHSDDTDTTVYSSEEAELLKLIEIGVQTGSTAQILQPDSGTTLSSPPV

Row | Structure (SMILES) | IC50 [1] [nM] | IC50 [2] [nM] | IC50 [3] [nM] | IC50 [4] [nM]
1 | Cc1ncc(C(=O)NCCN2CC3CCC2CC3)cc1Nc1nn(C)c2nc(Nc3cncnc3)ncc12 [Example 6, N-(2-(2-azabicyclo[2.2.2]octan-2-yl)ethyl)-6-methyl-5-((1-methyl-6-(pyrimidin-5-ylamino)-1H-pyrazolo[3,4-d]pyrimidin-3-yl)amino)nicotinamide] | 5.2 | 0.59 | > 7500 | 102
2 | Cc1cc(C(=O)NCCN2CCCC2(C)C)sc1Nc1nn(C)c2nc(Nc3cncnc3)ncc12 [Example 48, N-(2-(2,2-dimethylpyrrolidin-1-yl)ethyl)-4-methyl-5-((1-methyl-6-(pyrimidin-5-ylamino)-1H-pyrazolo[3,4-d]pyrimidin-3-yl)amino)thiophene-2-carboxamide] | 52.8 | 1.07 | > 7500 | 110
3 | COCCn1cc(Nc2ncc3c(Nc4cc(NC(=O)CN5CCC56CCC6)cnc4C)nn(C)c3n2)cn1 [Example 130, N-(5-((6-((1-(2-methoxyethyl)-1H-pyrazol-4-yl)amino)-1-methyl-1H-pyrazolo[3,4-d]pyrimidin-3-yl)amino)-6-methylpyridin-3-yl)-2-(1-azaspiro[3.3]heptan-1-yl)acetamide] | 1.5 | 0.37 | > 7500 | 4.7
4 | Cc1ccc(C(=O)NCCN2CCC3(CC3)C2)cc1Nc1nn(C)c2nc(Nc3cnn(C)c3)ncc12 [Example 67, N-(2-(5-azaspiro[2.4]heptan-5-yl)ethyl)-4-methyl-3-((1-methyl-6-((1-methyl-1H-pyrazol-4-yl)amino)-1H-pyrazolo[3,4-d]pyrimidin-3-yl)amino)benzamide] | 1.9 | 0.22 | 1660 | 9.8
5 | COCCn1cc(Nc2ncc3c(Nc4cc(C(=O)NCCN5CCCC56CCC6)cnc4C)nn(C)c3n2)cn1 [Example 147, N-(2-(5-azaspiro[3.4]octan-5-yl)ethyl)-5-((6-((1-(2-methoxyethyl)-1H-pyrazol-4-yl)amino)-1-methyl-1H-pyrazolo[3,4-d]pyrimidin-3-yl)amino)-6-methylnicotinamide] | 2.1 | 0.38 | 2670 | 14.7
6 | Cc1ncc(C(=O)NCCN2CCC3(CCC3)CC2)cc1Nc1nn(C)c2nc(Nc3cncnc3)ncc12 [Example 7, N-(2-(7-azaspiro[3.5]nonan-7-yl)ethyl)-6-methyl-5-((1-methyl-6-(pyrimidin-5-ylamino)-1H-pyrazolo[3,4-d]pyrimidin-3-yl)amino)nicotinamide] | 6.7 | 0.48 | > 7500 | 32.7
7 | Cc1ncc(C(=O)NCCN2CCCC(F)(F)C2)cc1Nc1nn(C)c2nc(Nc3cncnc3)ncc12 [Example 2, N-(2-(3,3-difluoropiperidin-1-yl)ethyl)-6-methyl-5-((1-methyl-6-(pyrimidin-5-ylamino)-1H-pyrazolo[3,4-d]pyrimidin-3-yl)amino)nicotinamide] | 3.7 | 0.57 | > 7500 | 27.1
8 | Cn1cc(Nc2ncc3c(Nc4cc(C(=O)NCCN5CCC(F)(F)CC5)ccc4F)nn(C)c3n2)cn1 [Example 63, N-(2-(4,4-difluoropiperidin-1-yl)ethyl)-4-fluoro-3-((1-methyl-6-((1-methyl-1H-pyrazol-4-yl)amino)-1H-pyrazolo[3,4-d]pyrimidin-3-yl)amino)benzamide] | 0.89 | 0.2 | 582 | 1.6
9 | Cn1nc(Nc2cc(C(=O)NCCN3CCCC3(C)C)ccc2F)c2cnc(Nc3cncnc3)nc21 [Example 51, N-(2-(2,2-dimethylpyrrolidin-1-yl)ethyl)-4-fluoro-3-((1-methyl-6-(pyrimidin-5-ylamino)-1H-pyrazolo[3,4-d]pyrimidin-3-yl)amino)benzamide] | 9 | 0.87 | > 7500 | 17.2
10 | Cc1ncc(C(=O)NCCN2CCC(C)(C)C2)cc1Nc1nn(C)c2nc(Nc3cncnc3)ncc12 [Example 8, N-(2-(3,3-dimethylpyrrolidin-1-yl)ethyl)-6-methyl-5-((1-methyl-6-(pyrimidin-5-ylamino)-1H-pyrazolo[3,4-d]pyrimidin-3-yl)amino)nicotinamide] | 5.8 | 0.39 | > 7500 | 48
11 | Cc1ncc(C(=O)NCCN2CCC3(CC3)C2)cc1Nc1nn(C)c2nc(Nc3cnn(C)c3)ncc12 [Example 90, N-(2-(5-azaspiro[2.4]heptan-5-yl)ethyl)-6-methyl-5-((1-methyl-6-((1-methyl-1H-pyrazol-4-yl)amino)-1H-pyrazolo[3,4-d]pyrimidin-3-yl)amino)nicotinamide] | 1.8 | 0.25 | > 7500 | 27.2
12 | CC(=O)Nc1cncc(Nc2ncc3c(Nc4cc(C(=O)NCCN5CCCC5(C)C)cnc4C)nn(C)c3n2)c1 [Example 99, 5-((6-((5-acetamidopyridin-3-yl)amino)-1-methyl-1H-pyrazolo[3,4-d]pyrimidin-3-yl)amino)-N-(2-(2,2-dimethylpyrrolidin-1-yl)ethyl)-6-methylnicotinamide] | 5.9 | 0.66 | > 7500 | 137
13 | Cc1ncc(C(=O)NCCC2CCCCC2)cc1Nc1nn(C)c2nc(Nc3ccc(CC#N)nc3)ncc12 [Example 105, 5-((6-((6-(cyanomethyl)pyridin-3-yl)amino)-1-methyl-1H-pyrazolo[3,4-d]pyrimidin-3-yl)amino)-N-(2-cyclohexylethyl)-6-methylnicotinamide] | 2.7 | 0.59 | 3360 | 9.7
14 | Cc1ncc(C(=O)NCCN2CCCC2(C)C)cc1Nc1nn(C)c2nc(Nc3cncc(CC(=O)O)c3)ncc12 [Example 33, 2-(5-((3-((5-((2-(2,2-dimethylpyrrolidin-1-yl)ethyl)carbamoyl)-2-methylpyridin-3-yl)amino)-1-methyl-1H-pyrazolo[3,4-d]pyrimidin-6-yl)amino)pyridin-3-yl)acetic acid] | 8.8 | 1.21 | 2190 | > 3000
15 | Cc1ncc(C(=O)NCCN2CCCC2(C)C)cc1Nc1nn(C)c2nc(Nc3ccc(N4CCOCC4)nc3)ncc12 [Example 102, N-(2-(2,2-dimethylpyrrolidin-1-yl)ethyl)-6-methyl-5-((1-methyl-6-((6-morpholinopyridin-3-yl)amino)-1H-pyrazolo[3,4-d]pyrimidin-3-yl)amino)nicotinamide] | 3.8 | 0.37 | > 7500 | 7.6
16 | Cc1ncc(C(=O)NCCN2CCCC[C@@H]2C)cc1Nc1nn(C)c2nc(Nc3cncnc3)ncc12 [Example 5, (S)-6-methyl-5-((1-methyl-6-(pyrimidin-5-ylamino)-1H-pyrazolo[3,4-d]pyrimidin-3-yl)amino)-N-(2-(2-methylpiperidin-1-yl)ethyl)nicotinamide] | 5.3 | 0.65 | 2070 | 67.5
17 | COCCn1cc(Nc2ncc3c(Nc4cc(NC(=O)CN5CCC(C)(C)C5)cnc4C)nn(C)c3n2)cn1 [Example 129, 2-(3,3-dimethylpyrrolidin-1-yl)-N-(5-((6-((1-(2-methoxyethyl)-1H-pyrazol-4-yl)amino)-1-methyl-1H-pyrazolo[3,4-d]pyrimidin-3-yl)amino)-6-methylpyridin-3-yl)acetamide] | 1.3 | 0.27 | 1420 | 2.4
